From PubChem BioAssay AID248 (DTP/NCI, 2004)
Several values for one entry are separate records, joined by “and”; a condition that tells them apart may be missing. Equal values may be shown once. Toxic doses and inconclusive results are not listed. No stated cut-off is given here; in the data, active means T/C of 150% or more; inactive means T/C below 125%.

Test system: L1210 leukemia ip in BDF1 mice, survival T/C
Test: NCI In Vivo Anticancer Drug Screen. Data for tumor model L1210 Leukemia (intraperitoneal) in B6D2F1 (BDF1) mice
Conditions: endpoint: mean survival time, higher = longer survival
How it was run: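 In this screen, tumor-bearing mice given compound are compared to those given vehicle, and their survival values are reported as a treated-to-control quotient.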

[1] = dose: 100.0 mg/kg/injection, schedule: Q01DX001 (ip), vehicle: saline
[2] = dose: 200.0 mg/kg/injection, schedule: Q01DX001 (ip), vehicle: saline
[3] = dose: 400.0 mg/kg/injection, schedule: Q01DX001 (ip), vehicle: saline
[4] = dose: 100.0 mg/kg/injection, schedule: Q01DX009 (ip), vehicle: saline
[5] = dose: 100.0 mg/kg/injection, schedule: Q04DX002 (ip), vehicle: saline with Tween-80
[6] = dose: 200.0 mg/kg/injection, schedule: Q04DX002 (ip), vehicle: saline with Tween-80

Measured: T/C

CCOC(=O)/C(C#N)=C1\CCc2cc(OC)ccc21
inactive: [1] 96 % of control | dose: 100.0 mg/kg/injection, schedule: Q01DX009 (ip), vehicle: other 103 % of control | [2] 90 % of control | dose: 200.0 mg/kg/injection, schedule: Q01DX009 (ip), vehicle: other 99 % of control | [3] 92 % of control | dose: 400.0 mg/kg/injection, schedule: Q01DX009 (ip), vehicle: other 97 % of control

C[N+](C)(C)CCCCCC[N+](C)(C)C
inactive: dose: 25.0 mg/kg/injection, schedule: Q01DX009 (ip), vehicle: saline 102 % of control | dose: 25.0 mg/kg/injection, schedule: Q04DX003 (ip), vehicle: saline 108 % of control | dose: 50.0 mg/kg/injection, schedule: Q01DX009 (ip), vehicle: saline 104 % of control | dose: 50.0 mg/kg/injection, schedule: Q04DX003 (ip), vehicle: saline 97 % of control | [4] 96 % of control | dose: 100.0 mg/kg/injection, schedule: Q04DX003 (ip), vehicle: saline 94 % of control and 89 % of control

Nc1nccc(NC(c2ccccc2)c2ccccc2)c1N
inactive: dose: 12.5 mg/kg/injection, schedule: Q01DX001 (ip), vehicle: other 96 % of control | dose: 12.5 mg/kg/injection, schedule: Q01DX009 (ip), vehicle: DMSO 95 % of control | dose: 12.5 mg/kg/injection, schedule: Q04DX003 (ip), vehicle: other 96 % of control | dose: 25.0 mg/kg/injection, schedule: Q01DX001 (ip), vehicle: other 96 % of control | dose: 25.0 mg/kg/injection, schedule: Q04DX003 (ip), vehicle: other 96 % of control | dose: 50.0 mg/kg/injection, schedule: Q01DX001 (ip), vehicle: other 98 % of control | dose: 50.0 mg/kg/injection, schedule: Q04DX003 (ip), vehicle: other 89 % of control

CC(=O)NC1CCC(C)CC1 (stereo not given)
inactive: dose: 50.0 mg/kg/injection, schedule: Q01DX001 (ip), vehicle: saline 109 % of control | dose: 100.0 mg/kg/injection, schedule: Q01DX001 (ip), vehicle: Klucel (hydroxypropylcellulose) (HPC) 93 % of control | [1] 93 % of control | [2] 102 % of control

CCCC#CCOCC1CO1 (stereo not given)
inactive: [4] 93 % of control | dose: 100.0 mg/kg/injection, schedule: Q04DX003 (ip), vehicle: saline sonified 98 % of control | dose: 200.0 mg/kg/injection, schedule: Q01DX009 (ip), vehicle: saline 89 % of control | dose: 200.0 mg/kg/injection, schedule: Q04DX003 (ip), vehicle: saline sonified 109 % of control | dose: 400.0 mg/kg/injection, schedule: Q01DX009 (ip), vehicle: saline 91 % of control | dose: 400.0 mg/kg/injection, schedule: Q04DX003 (ip), vehicle: saline sonified 104 % of control

C=COc1c(Cl)cc(Cl)cc1Cl
inactive: dose: 100.0 mg/kg/injection, schedule: Q01DX009 (ip), vehicle: saline with Tween-80 93 % of control and 101 % of control | [5] 105 % of control and 107 % of control | dose: 200.0 mg/kg/injection, schedule: Q01DX009 (ip), vehicle: saline with Tween-80 101 % of control and 102 % of control | [6] 97 % of control and 98 % of control | dose: 400.0 mg/kg/injection, schedule: Q01DX009 (ip), vehicle: saline with Tween-80 100 % of control and 104 % of control | dose: 400.0 mg/kg/injection, schedule: Q04DX002 (ip), vehicle: saline with Tween-80 94 % of control and 101 % of control

Cc1ccccc1NC(=O)N(C)N
inactive: dose: 75.0 mg/kg/injection, schedule: Q01DX001 (ip), vehicle: carboxymethylcellulose (CMC) 93 % of control

[CH3][Ga]([CH3])[O]c1ccccc1C=O
inactive: dose: 1.5 mg/kg/injection, schedule: Q01DX009 (ip), vehicle: DMSO 97 % of control | dose: 1.5 mg/kg/injection, schedule: Q04DX003 (ip), vehicle: DMSO 107 % of control | dose: 3.0 mg/kg/injection, schedule: Q01DX009 (ip), vehicle: DMSO 97 % of control | dose: 3.0 mg/kg/injection, schedule: Q04DX003 (ip), vehicle: DMSO 94 % of control | dose: 6.0 mg/kg/injection, schedule: Q01DX009 (ip), vehicle: DMSO 108 % of control | dose: 6.0 mg/kg/injection, schedule: Q04DX003 (ip), vehicle: DMSO 102 % of control

O=C(Nc1ccc(C2=NCCN2)cc1)C(=O)Nc1ccc(C2=NCCN2)cc1
inactive: dose: 15.0 mg/kg/injection, schedule: Q01DX Z (ip), vehicle: saline 101 % of control | dose: 30.0 mg/kg/injection, schedule: Q01DX Z (ip), vehicle: saline 118 % of control | dose: 60.0 mg/kg/injection, schedule: Q01DX Z (ip), vehicle: saline 124 % of control

CCN(CC)CCNc1c(C)cc(CO)c(Cl)c1C
inactive: dose: 31.25 mg/kg/injection, schedule: Q01DX009 (ip), vehicle: saline 97 % of control | dose: 62.5 mg/kg/injection, schedule: Q01DX009 (ip), vehicle: saline 99 % of control | dose: 125.0 mg/kg/injection, schedule: Q01DX009 (ip), vehicle: saline 97 % of control | dose: 250.0 mg/kg/injection, schedule: Q01DX009 (ip), vehicle: saline 103 % of control

N#Cc1c(SCC(=O)O)nsc1SCC(=O)O
inactive: dose: 100.0 mg/kg/injection, schedule: Q04DX002 (ip), vehicle: gum acacia 97 % of control | dose: 200.0 mg/kg/injection, schedule: Q04DX002 (ip), vehicle: gum acacia 94 % of control | dose: 400.0 mg/kg/injection, schedule: Q04DX002 (ip), vehicle: gum acacia 100 % of control

COC(=O)c1cc(OC)cc(OC)c1C(=O)c1c(OC)c(Cl)c(C)c(Cl)c1OC
inactive: dose: 50.0 mg/kg/injection, schedule: Q04DX002 (ip), vehicle: saline with Tween-80 110 % of control | [5] 95 % of control | [6] 100 % of control

O=C(N/N=C/c1ccc2c(c1)OCO2)C(O)(c1ccccc1)c1ccccc1
inactive: dose: 100.0 mg/kg/injection, schedule: Q01DX001 (ip), vehicle: carboxymethylcellulose (CMC) 106 % of control | dose: 200.0 mg/kg/injection, schedule: Q01DX001 (ip), vehicle: carboxymethylcellulose (CMC) 95 % of control | dose: 400.0 mg/kg/injection, schedule: Q01DX001 (ip), vehicle: carboxymethylcellulose (CMC) 103 % of control

O=S(=O)(c1ccc(Nc2nc(Cl)nc(Cl)n2)cc1)N(CCCl)CCCl
inactive: dose: 100.0 mg/kg/injection, schedule: Q01DX009 (ip), vehicle: Klucel (hydroxypropylcellulose) (HPC) 103 % of control | dose: 200.0 mg/kg/injection, schedule: Q01DX009 (ip), vehicle: Klucel (hydroxypropylcellulose) (HPC) 104 % of control | dose: 400.0 mg/kg/injection, schedule: Q01DX009 (ip), vehicle: Klucel (hydroxypropylcellulose) (HPC) 107 % of control

O=P(O)(N(CCCl)CCCl)N1CCN(P(=O)(O)N(CCCl)CCCl)CC1
inactive: dose: 10.0 mg/kg/injection, schedule: Q01DX015 (ip), vehicle: saline 110 % of control | dose: 30.0 mg/kg/injection, schedule: Q01DX015 (ip), vehicle: saline 119 % of control | [1] 115 % of control | [2] 113 % of control | [3] 124 % of control

CCN(CC)CCOC(=O)C(S)(c1ccccc1)C1CCCCC1 (stereo not given)
inactive: dose: 75.0 mg/kg/injection, schedule: Q01DX001 (ip), vehicle: other 90 % of control | dose: 150.0 mg/kg/injection, schedule: Q01DX001 (ip), vehicle: other 87 % of control

CCCCCCCCCCCCCCCCCOc1ccc2ccccc2c1
inactive: dose: 100.0 mg/kg/injection, schedule: Q01DX001 (ip), vehicle: saline with Tween-80 87 % of control | dose: 200.0 mg/kg/injection, schedule: Q01DX001 (ip), vehicle: saline with Tween-80 89 % of control
